Measurements published in PubChem BioAssay (NCI).
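A five-concentration, 48-hour dose response in 96-well plates underlies each endpoint, interpolated linearly between surrounding concentrations. At the GI50, growth is halved. TGI marks complete inhibition of growth.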

Assays:
Experiment in all cases: NCI tumour cell line growth inhibition, 48 h
786-0 renal = test system: 786-0 renal
A498 renal = test system: A498 renal
A549 NSCLC = test system: A549 NSCLC
ACHN renal = test system: ACHN renal
BT-549 breast = test system: BT-549 breast
CAKI-1 renal = test system: CAKI-1 renal
CCRF-CEM leukemia = test system: CCRF-CEM leukemia
COLO 205 colon = test system: COLO 205 colon
DU-145 prostate = test system: DU-145 prostate
EKVX NSCLC = test system: EKVX NSCLC
HCC-2998 colon = test system: HCC-2998 colon
HCT-116 colon = test system: HCT-116 colon
HCT-15 colon = test system: HCT-15 colon
HL-60(TB) leukemia = test system: HL-60(TB) leukemia
HOP-62 NSCLC = test system: HOP-62 NSCLC
HOP-92 NSCLC = test system: HOP-92 NSCLC
HS 578T breast = test system: HS 578T breast
HT29 colon = test system: HT29 colon
IGROV1 ovarian = test system: IGROV1 ovarian
K-562 leukemia = test system: K-562 leukemia
KM12 colon = test system: KM12 colon
LOX IMVI melanoma = test system: LOX IMVI melanoma
M14 melanoma = test system: M14 melanoma
MALME-3M melanoma = test system: MALME-3M melanoma
MCF7 breast = test system: MCF7 breast
MDA-MB-231 breast = test system: MDA-MB-231 breast
MDA-MB-435 = test system: MDA-MB-435
MOLT-4 leukemia = test system: MOLT-4 leukemia
NCI-H226 lung = test system: NCI-H226 lung
NCI-H23 lung = test system: NCI-H23 lung
NCI-H460 lung = test system: NCI-H460 lung
NCI-H522 lung = test system: NCI-H522 lung
NCI/ADR-RES ovarian = test system: NCI/ADR-RES ovarian
OVCAR-3 ovarian = test system: OVCAR-3 ovarian
OVCAR-4 ovarian = test system: OVCAR-4 ovarian
OVCAR-5 ovarian = test system: OVCAR-5 ovarian
OVCAR-8 ovarian = test system: OVCAR-8 ovarian
PC-3 prostate = test system: PC-3 prostate
RPMI-8226 leukemia = test system: RPMI-8226 leukemia
RXF 393 renal = test system: RXF 393 renal
SF-268 CNS = test system: SF-268 CNS
SF-295 CNS = test system: SF-295 CNS
SF-539 CNS = test system: SF-539 CNS
SK-MEL-2 melanoma = test system: SK-MEL-2 melanoma
SK-MEL-28 melanoma = test system: SK-MEL-28 melanoma
SK-MEL-5 melanoma = test system: SK-MEL-5 melanoma
SK-OV-3 ovarian = test system: SK-OV-3 ovarian
SN12C renal = test system: SN12C renal
SNB-19 CNS = test system: SNB-19 CNS
SR leukemia = test system: SR leukemia
SW-620 colon = test system: SW-620 colon
T-47D breast = test system: T-47D breast
TK-10 renal = test system: TK-10 renal
U251 CNS = test system: U251 CNS
UACC-257 melanoma = test system: UACC-257 melanoma
UACC-62 melanoma = test system: UACC-62 melanoma
UO-31 renal = test system: UO-31 renal

SMILES: Nc1nc(N)c2cc(CNc3ccc(C(=O)NC(CC(=O)O)C(=O)O)cc3)ccc2n1 (stereo unspecified)
- GI50 (786-0 renal): 0.103 µM
- TGI (786-0 renal): > 100 µM
- TGI (A498 renal): > 100 µM
- GI50 (A549 NSCLC): 0.0578 µM
- TGI (A549 NSCLC): > 100 µM
- GI50 (ACHN renal): 0.18 µM
- TGI (ACHN renal): > 100 µM
- GI50 (BT-549 breast): 0.429 µM
- TGI (BT-549 breast): > 100 µM
- GI50 (CAKI-1 renal): 0.108 µM
- TGI (CAKI-1 renal): > 100 µM
- GI50 (CCRF-CEM leukemia): 0.0839 µM
- TGI (CCRF-CEM leukemia): > 100 µM
- GI50 (COLO 205 colon): 3.4 µM
- TGI (COLO 205 colon): > 100 µM
- GI50 (DU-145 prostate): 0.17 µM
- TGI (DU-145 prostate): > 100 µM
- TGI (EKVX NSCLC): > 100 µM
- GI50 (HCC-2998 colon): 0.281 µM
- TGI (HCC-2998 colon): > 82 µM
- GI50 (HCT-116 colon): 0.026 µM
- TGI (HCT-116 colon): > 100 µM
- GI50 (HCT-15 colon): 0.049 µM
- TGI (HCT-15 colon): > 100 µM
- GI50 (HL-60(TB) leukemia): 0.0325 µM
- TGI (HL-60(TB) leukemia): > 100 µM
- GI50 (HOP-62 NSCLC): 0.196 µM
- TGI (HOP-62 NSCLC): > 100 µM
- GI50 (HOP-92 NSCLC): > 41 µM
- TGI (HOP-92 NSCLC): > 100 µM
- GI50 (HS 578T breast): > 55.4 µM
- TGI (HS 578T breast): > 100 µM
- GI50 (HT29 colon): 0.0594 µM
- TGI (HT29 colon): > 100 µM
- GI50 (IGROV1 ovarian): 0.187 µM
- TGI (IGROV1 ovarian): > 100 µM
- GI50 (K-562 leukemia): 0.0359 µM
- TGI (K-562 leukemia): > 100 µM
- GI50 (KM12 colon): 0.0817 µM
- TGI (KM12 colon): > 100 µM
- GI50 (LOX IMVI melanoma): 0.0434 µM
- TGI (LOX IMVI melanoma): > 100 µM
- GI50 (M14 melanoma): 0.119 µM
- TGI (M14 melanoma): > 87.7 µM
- TGI (MALME-3M melanoma): > 100 µM
- GI50 (MCF7 breast): 0.0621 µM
- TGI (MCF7 breast): > 100 µM
- GI50 (MDA-MB-231 breast): > 83.7 µM
- TGI (MDA-MB-231 breast): > 100 µM
- GI50 (MDA-MB-435): 0.0589 µM
- TGI (MDA-MB-435): > 100 µM
- GI50 (MOLT-4 leukemia): 0.825 µM
- TGI (MOLT-4 leukemia): > 100 µM
- TGI (NCI-H226 lung): > 100 µM
- GI50 (NCI-H23 lung): 0.311 µM
- TGI (NCI-H23 lung): > 100 µM
- GI50 (NCI-H460 lung): 0.0492 µM
- TGI (NCI-H460 lung): > 100 µM
- TGI (NCI-H522 lung): > 100 µM
- GI50 (NCI/ADR-RES ovarian): 0.126 µM
- TGI (NCI/ADR-RES ovarian): > 100 µM
- GI50 (OVCAR-3 ovarian): 3.83 µM
- TGI (OVCAR-3 ovarian): > 100 µM
- GI50 (OVCAR-4 ovarian): > 100 µM
- TGI (OVCAR-4 ovarian): > 100 µM
- TGI (OVCAR-5 ovarian): > 100 µM
- GI50 (OVCAR-8 ovarian): 0.104 µM
- TGI (OVCAR-8 ovarian): > 100 µM
- TGI (PC-3 prostate): > 100 µM
- GI50 (RPMI-8226 leukemia): 0.694 µM
- TGI (RPMI-8226 leukemia): > 100 µM
- GI50 (RXF 393 renal): > 100 µM
- TGI (RXF 393 renal): > 100 µM
- GI50 (SF-268 CNS): 0.174 µM
- TGI (SF-268 CNS): > 100 µM
- GI50 (SF-295 CNS): 0.0611 µM
- GI50 (SF-539 CNS): 0.162 µM
- TGI (SF-539 CNS): > 100 µM
- TGI (SK-MEL-2 melanoma): > 100 µM
- TGI (SK-MEL-28 melanoma): > 100 µM
- GI50 (SK-MEL-5 melanoma): 0.34 µM
- TGI (SK-MEL-5 melanoma): > 100 µM
- GI50 (SK-OV-3 ovarian): 1.3 µM
- TGI (SK-OV-3 ovarian): > 100 µM
- GI50 (SN12C renal): 0.211 µM
- TGI (SN12C renal): > 100 µM
- GI50 (SNB-19 CNS): 2.16 µM
- TGI (SNB-19 CNS): > 100 µM
- TGI (SR leukemia): > 100 µM
- GI50 (SW-620 colon): 0.0432 µM
- TGI (SW-620 colon): > 100 µM
- GI50 (T-47D breast): > 100 µM
- TGI (T-47D breast): > 100 µM
- TGI (TK-10 renal): > 100 µM
- GI50 (U251 CNS): 0.2 µM
- TGI (U251 CNS): > 100 µM
- GI50 (UACC-257 melanoma): > 100 µM
- TGI (UACC-257 melanoma): > 100 µM
- GI50 (UACC-62 melanoma): 0.218 µM
- TGI (UACC-62 melanoma): > 100 µM
- GI50 (UO-31 renal): 0.358 µM
- TGI (UO-31 renal): > 100 µM

SMILES: COC(=O)[C@@H](Cc1ccccc1)NNC(=O)OC(C)(C)C
- TGI (786-0 renal): > 100 µM
- TGI (A498 renal): > 100 µM
- TGI (A549 NSCLC): > 100 µM
- TGI (ACHN renal): > 100 µM
- TGI (BT-549 breast): > 100 µM
- TGI (CCRF-CEM leukemia): > 100 µM
- TGI (COLO 205 colon): > 100 µM
- TGI (DU-145 prostate): > 100 µM
- TGI (EKVX NSCLC): > 100 µM
- TGI (HCC-2998 colon): > 100 µM
- TGI (HCT-116 colon): > 100 µM
- TGI (HCT-15 colon): > 100 µM
- TGI (HL-60(TB) leukemia): > 100 µM
- TGI (HOP-62 NSCLC): > 100 µM
- TGI (HS 578T breast): > 100 µM
- TGI (IGROV1 ovarian): > 100 µM
- TGI (K-562 leukemia): > 100 µM
- TGI (KM12 colon): > 100 µM
- TGI (LOX IMVI melanoma): > 100 µM
- TGI (MALME-3M melanoma): > 100 µM
- TGI (MCF7 breast): > 100 µM
- TGI (MDA-MB-231 breast): > 100 µM
- TGI (MDA-MB-435): > 100 µM
- TGI (MOLT-4 leukemia): > 100 µM
- TGI (NCI-H23 lung): > 100 µM
- TGI (NCI-H460 lung): > 100 µM
- TGI (NCI-H522 lung): > 100 µM
- TGI (NCI/ADR-RES ovarian): > 100 µM
- TGI (OVCAR-3 ovarian): > 100 µM
- TGI (OVCAR-4 ovarian): > 100 µM
- TGI (OVCAR-5 ovarian): > 100 µM
- TGI (OVCAR-8 ovarian): > 100 µM
- TGI (PC-3 prostate): > 100 µM
- TGI (RPMI-8226 leukemia): > 100 µM
- TGI (RXF 393 renal): > 100 µM
- TGI (SF-268 CNS): > 100 µM
- TGI (SF-295 CNS): > 100 µM
- TGI (SF-539 CNS): > 100 µM
- TGI (SK-MEL-28 melanoma): > 100 µM
- TGI (SK-MEL-5 melanoma): > 100 µM
- TGI (SK-OV-3 ovarian): > 100 µM
- TGI (SN12C renal): > 100 µM
- TGI (SR leukemia): > 100 µM
- TGI (SW-620 colon): > 100 µM
- TGI (T-47D breast): > 100 µM
- TGI (TK-10 renal): > 100 µM
- TGI (U251 CNS): > 100 µM
- TGI (UACC-257 melanoma): > 100 µM
- TGI (UACC-62 melanoma): > 100 µM
